Measured values taken from BigSolDB 2.1.

CC[C@H](/C=C/[C@@H](C)[C@H]1CC[C@H]2[C@@H]3CC=C4C[C@@H](OC(=O)/C=C\C(=O)O)CC[C@]4(C)[C@H]3CC[C@]12C)C(C)C
Settings | solubility (mole fraction)
in acetone, 293.15 K | 0.000383
in acetone, 296.65 K | 0.000431
in acetone, 303.65 K | 0.000535
in acetone, 317.15 K | 0.000785
in acetone, 325.65 K | 0.00102
in ethyl acetate, 288.15 K | 0.00146
in ethyl acetate, 293.25 K | 0.00179
in ethyl acetate, 298.15 K | 0.00202
in ethyl acetate, 302.65 K | 0.0028
in ethyl acetate, 308.65 K | 0.00395
in ethyl acetate, 312.65 K | 0.00438
in ethyl acetate, 317.35 K | 0.0053
